Experimental data from patent US4262013A, “Mevalonolactone derivatives and process for the preparation thereof” (Sankyo Company Limited, priority 1977, dated 1981).
pIC50: −log10 of the molar value. Like-named read-outs stand apart in the source and are kept apart here.

Legend:
[1] = molecular target: T1, 3-hydroxy-3-methylglutaryl coenzyme A reductase (Rattus norvegicus, UniProt P51639); test: Assay Method A: inhibitory activity to cholesterol biosynthesis in vitro, 50% inhibition of the enzyme activity (method of Knauss et al); assay type: biochemical; details: for IC50: Assay Method A, in vitro, mole concentration for 50% inhibition of the enzyme activity, read-out: ID50 (M) Assay Method A
T1 construct: from tissue
T1 sequence (P51639 1-887): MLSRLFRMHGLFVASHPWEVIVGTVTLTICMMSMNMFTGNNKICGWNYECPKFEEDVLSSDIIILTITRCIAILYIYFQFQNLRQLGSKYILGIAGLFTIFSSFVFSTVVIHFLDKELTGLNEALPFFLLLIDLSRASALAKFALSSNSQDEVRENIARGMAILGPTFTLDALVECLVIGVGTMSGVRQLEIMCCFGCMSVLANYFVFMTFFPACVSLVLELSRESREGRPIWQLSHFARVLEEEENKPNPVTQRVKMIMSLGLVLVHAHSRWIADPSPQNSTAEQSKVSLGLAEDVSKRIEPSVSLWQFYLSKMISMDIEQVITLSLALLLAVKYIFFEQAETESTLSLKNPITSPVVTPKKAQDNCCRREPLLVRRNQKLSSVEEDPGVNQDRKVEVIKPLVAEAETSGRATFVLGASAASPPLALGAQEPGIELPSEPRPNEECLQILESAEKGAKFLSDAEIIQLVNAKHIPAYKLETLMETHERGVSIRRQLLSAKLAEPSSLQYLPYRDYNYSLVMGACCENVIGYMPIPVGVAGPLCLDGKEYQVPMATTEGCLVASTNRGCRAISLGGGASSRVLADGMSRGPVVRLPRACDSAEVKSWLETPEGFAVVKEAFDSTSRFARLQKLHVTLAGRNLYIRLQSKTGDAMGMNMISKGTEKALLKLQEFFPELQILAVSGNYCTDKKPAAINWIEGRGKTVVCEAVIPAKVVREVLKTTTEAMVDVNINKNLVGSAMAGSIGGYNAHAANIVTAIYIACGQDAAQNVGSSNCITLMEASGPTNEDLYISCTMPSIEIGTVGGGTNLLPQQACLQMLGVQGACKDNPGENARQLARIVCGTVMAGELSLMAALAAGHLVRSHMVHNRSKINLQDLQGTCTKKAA

[2] = test system: cholesterol biosynthesis in L-cells of mice (929); test: Assay Method B: inhibition of 14C-cholesterol biosynthesis from 14C-acetic acid in L-cells of mice (929) (method of Kandutsch et al); assay type: cell-based; details: Mus musculus, mole concentration for 50% inhibition of cholesterol biosynthesis, read-out: ID50 (M) Assay Method B
Text: The inhibitory activity of these compounds to cholesterol biosynthesis was further evaluated according to the method described in A. A. Kandutsch et al, Journal of Biological Chemistry, 248, 8408 (1973) by measuring the amount of ^14 C-cholesterol biosynthesized from ^14 C-acetic acid using L-cells of mice (929), and the activity was expressed by the mole concentration [I50 (M)] for 50% inhibition of cholesterol biosynthesis (Assay Method B).

CC1(O)CC(=O)OC(c2ccc(OCc3ccccc3)cc2)C1 (stereo not drawn) [A, 3-Hydroxy-3-methyl-5-(p-benzyloxyphenyl)-5-pentanolide]
IC50 [1]: 6.2e-05 M
IC50 [2]: 0.00013 M

CC1(O)CC(=O)OC(c2ccc(-c3ccccc3)cc2)C1 (stereo not drawn) [B, 3-Hydroxy-3-methyl-5-(4-biphenylyl)-5-pentanolide]
IC50 [1]: 0.0001 M
IC50 [2]: 0.00016 M

CC1(O)CC(=O)OC(CCc2ccccc2)C1 (stereo not drawn) [C, 3-Hydroxy-3-methyl-7-phenyl-5-heptanolide]
IC50 [1]: 0.00036 M
IC50 [2]: 4.2e-05 M

CCOC(=O)C(C)(C)Oc1ccc(Cl)cc1 [Clofibrate, reference compound]
pIC50 [1]: 3.00
IC50 [2]: 8e-05 M

CC1(O)CC(=O)OC(CCc2ccccc2)C1Br (stereo not drawn) [Compound D, 3-Hydroxy-3-methyl-4-bromo-7-phenyl-5-heptanolide]
IC50 [1]: 0.0001 M

CC1C(CCc2ccccc2)OC(=O)CC1(C)O (stereo not drawn) [E, 3-Hydroxy-3,4-dimethyl-7-phenyl-5-heptanolide]
IC50 [1]: 6.7e-05 M

CC1(O)CC(=O)OC(CCc2ccc(O)cc2)C1 (stereo not drawn) [F, 3-Hydroxy-3-methyl-7-(p-hydroxyphenyl)-5-heptanolide]
IC50 [1]: 6.6e-05 M

CC(=O)OC1(C)CC(=O)OC(CCc2ccc(OCc3ccccc3)cc2)C1 (stereo not drawn) [G, 3-Acetoxy-3-methyl-7-(p-benzyloxyphenyl)-5-heptanolide]
IC50 [1]: 4.5e-05 M
IC50 [2]: 3.1e-05 M

CC1(O)CC(=O)OC(CCc2ccc(OCc3ccccc3)cc2)C1 (stereo not drawn) [H, 3-Hydroxy-3-methyl-7-(p-benzyloxyphenyl)-5-heptanolide]
IC50 [1]: 4.2e-06 M
IC50 [2]: 6e-06 M

CC1(O)CC(=O)OC(CCc2ccccc2OCc2ccccc2)C1 (stereo not drawn) [I, 3-Hydroxy-3-methyl-7-(o-benzyloxyphenyl)-5-heptanolide]
IC50 [1]: 3.3e-05 M
IC50 [2]: 5e-05 M

CC1(O)CC(=O)OC(CCc2ccc(OCc3ccccc3)cc2)C1Br (stereo not drawn) [J, 3-Hydroxy-3-methyl-4-bromo-7-(p-benzyloxyphenyl)-5-heptanolide]
IC50 [1]: 5.6e-06 M
IC50 [2]: 3e-05 M

CC1(O)CC(=O)OC(CCc2ccccc2OCc2ccccc2)C1Br (stereo not drawn) [K, 3-Hydroxy-3-methyl-4-bromo-7-(o-benzyloxyphenyl)-5-heptanolide]
IC50 [1]: 4.7e-05 M
IC50 [2]: 8.8e-05 M

CC1(O)CC(=O)OC(CCc2ccc(OCc3ccc(F)cc3)cc2)C1 (stereo not drawn) [L, 3-Hydroxy-3-methyl-7-[p-(p-fluorobenzyloxy)phenyl]-5-heptanolide]
IC50 [2]: 5e-05 M

CC1(O)CC(=O)OC(CCc2ccc(OCc3ccc(Cl)cc3)cc2)C1 (stereo not drawn) [M, 3-Hydroxy-3-methyl-7-[p-(p-chlorobenzyloxy)phenyl]-5-heptanolide]
IC50 [2]: 1.9e-05 M

CC1(O)CC(=O)OC(CCc2ccc(Cl)cc2)C1 (stereo not drawn) [N, 3-Hydroxy-3-methyl-7-(p-chlorophenyl)-5-heptanolide]
IC50 [1]: 4.5e-05 M
IC50 [2]: 3e-05 M

CC1(O)CC(=O)OC(CCc2ccc(Cl)cc2)C1Br (stereo not drawn) [O, 3-Hydroxy-3-methyl-4-bromo-7-(p-chlorophenyl)-5-heptanolide]
IC50 [1]: 6.3e-05 M

COc1ccc(CCC2CC(C)(O)CC(=O)O2)cc1 (stereo not drawn) [P, 3-Hydroxy-3-methyl-7-(p-methoxyphenyl)-5-heptanolide]
IC50 [1]: 6.3e-05 M

CC1C(C=Cc2ccccc2)OC(=O)CC1(C)O (stereo not drawn) [Q, 3-Hydroxy-3,4-dimethyl-7-phenyl-6-hepten-5-olide]
IC50 [1]: 6.4e-05 M

CC1(O)CC(=O)OC(C=Cc2ccc(OCc3ccccc3)cc2)C1 (stereo not drawn) [R, 3-Hydroxy-3-methyl-7-(p-benzyloxyphenyl)-6-hepten-5-olide]
IC50 [1]: 8.6e-06 M
IC50 [2]: 1.3e-05 M

CC1(O)CC(=O)OC(C=Cc2cccc(OCc3ccccc3)c2)C1 (stereo not drawn) [S, 3-Hydroxy-3-methyl-7-(m-benzyloxyphenyl)-6-hepten-5-olide]
IC50 [1]: 7.1e-05 M
IC50 [2]: 0.00012 M

COc1cc(CCC2CC(C)(O)CC(=O)O2)ccc1OCc1ccccc1 (stereo not drawn) [T, 3-Hydroxy-3-methyl-7-(p-benzyloxy-m-methoxyphenyl)-5-heptanolide]
IC50 [1]: 2.1e-05 M
IC50 [2]: 1.1e-05 M

Cc1cc(OCc2ccccc2)cc(C)c1CCC1CC(C)(O)CC(=O)O1 (stereo not drawn) [U, 3-Hydroxy-3-methyl-7-(p-benzyloxy-o,o'-dimethylphenyl)-5-heptanolide]
IC50 [1]: 3.8e-06 M
IC50 [2]: 5.4e-06 M

Cc1cc(OCc2ccccc2)cc(C)c1CCC1OC(=O)CC(C)(O)C1Br (stereo not drawn) [V, 3-Hydroxy-3-methyl-4-bromo-7-(p-benzyloxy-o,o'-dimethylphenyl)-5-heptanolide]
IC50 [2]: 1e-05 M

COc1cc(CCC2CC(C)(O)CC(=O)O2)ccc1OC(C)=O (stereo not drawn) [W, 3-Hydroxy-3-methyl-7-(p-acetoxy-m-methoxyphenyl)-5-heptanolide]
IC50 [1]: 4.5e-05 M
IC50 [2]: 8.3e-05 M

Cc1cc(OC(=O)c2ccccc2)cc(C)c1CCC1CC(C)(O)CC(=O)O1 (stereo not drawn) [X, 3-Hydroxy-3-methyl-7-(p-benzoyloxy-o,o'-dimethylphenyl)-5-heptanolide]
IC50 [1]: 3.9e-06 M
IC50 [2]: 6.5e-06 M

CC1(O)CC(=O)OC(CCCc2ccc(OCc3ccccc3)cc2)C1 (stereo not drawn) [Y, 3-Hydroxy-3-methyl-8-(p-benzyloxyphenyl)-5-octanolide]
IC50 [1]: 4e-06 M
IC50 [2]: 7e-06 M

CC1(O)CC(=O)OC(CCCc2ccc(OCc3ccccc3)cc2)C1Br (stereo not drawn) [Z, 3-Hydroxy-3-methyl-4-bromo-8-(p-benzyloxyphenyl)-5-octanolide]
IC50 [1]: 6.7e-06 M
IC50 [2]: 1.2e-05 M
